US10932483B2, “Sweetness enhancer” (PepsiCo, Inc., priority 2014, dated 2021)
Values joined by “and” are separate entries in the source; they are usually repeats but may differ in a detail not shown here. Equal values may be shown once. “Also recorded” adds a separate entry of the source.

Assays:
human sense of taste [1] = experiment: Taste of QUAKER Instant Oatmeal containing phloroglucinol; type: in vivo
Method: Sugar was added to unsweetened QUAKER Instant Oatmeal (IQO) Original flavor. A high sugar control comprising 8 g sugar per bag of IQO (29 g) was prepared. A low sugar control comprising 5 g sugar per bag of IQO (29 g) was also prepared. […] The high control, low control, and variant formulations were placed in individual beakers and combined with about 200 mL of hot water. The resulting mixtures were stirred and then tasted. Taste tests were conducted while the mixtures were still warm and after the mixtures had cooled to room temperature.
The high and low controls described in Example 14 were again prepared. […] The high control, low control, and variant formulations were placed in individual beakers and combined with about 200 mL of hot water. The resulting mixtures were stirred and then tasted. Tasting was performed while the IQO was warm and after the IQO cooled to room temperature.

human sense of taste [2] = experiment: Taste of beverages (cola, SIERRA MIST, diet cola) containing phloroglucinol; type: in vivo
Method: Sources: A bottle of cola concentrate (HFCS-55) and a bottle of concentrate having ⅓ less HFCS (the “Brix-reduced syrup”) were obtained. […] Both concentrates were then used to make cola beverages (volume 4.5 carbonated water) in a 1 plus 5 throw manner.
Experiments were conducted on a sugar reduced cola beverage. A control bottle of cola concentrate (HFCS-55) and a bottle of Brix reduced variant concentrate having 35% less HFCS than the control were used. […] Both concentrates were then used to make cola beverages with volume 4.5 carbonated water in a 1 plus 5 throw manner.
Taste experiments were conducted for a diet cola beverage. Unsweetened diet cola concentrate was used. Control syrup 1 was made by adding 3000 ppm aspartame to the concentrate. Control syrup 2 was made by adding 2400 ppm rebaudioside M to the diet cola concentrate. […] All concentrates were then used to make diet cola beverages with volume 4.5 carbonated water in a 1 plus 5 throw manner.
The finished control diet cola beverage 1 contained 500 ppm aspartame.
A total of 5 diet cola tasters evaluated the four beverages.

[3] = Physicochemical properties of phloroglucinol; settings: concentrations described; higher temperatures; sunlight
human sense of taste [4] = experiment: Taste of phloroglucinol in water, alone or with salt; type: in vivo
Method: (§1) General Tasting Procedure: Unless otherwise specified in a given example, tastings were performed by a single taster using a “sip, spit, rinse” protocol. Under this protocol, the taster: • a. sipped up to about 10 ml of a given solution and assessed the sweetness, mouthfeel, and other characteristics of the solution during its residence in the taster's mouth; • b. spit out the solution after making the assessment; and • c. rinsed with water to cleanse the palate before testing any further samples.
To analyze this effect, an experiment was conducted to determine whether NaCl could be used as a supplemental sweetness enhancer.

human sense of taste [5] = experiment: Taste of sugar solutions with phloroglucinol and supplemental sweetness enhancers; type: in vivo; settings: Example 22: 500 ppm phloroglucinol, 350 ppm rebaudioside C, 8% sugar
Method: as §1
Three tasters conducted taste experiments on the blends identified in the table, below.
Experiments were conducted utilizing phloroglucinol and rebaudioside C in a sugar solutions.
Two testers tasted each of solutions 1 through 5, in the table above.
Taste experiments were conducted with sugar solutions comprising phloroglucinol and one of rebaudioside B, rebaudioside M, and trilobatin as set forth in the table, below.
Two testers tasted these solutions.
Five aqueous solutions comprising sugar, phloroglucinol, and/or rubusoside were prepared as set forth in the table below and tested for sweetness.

human sense of taste [6] = experiment: Lab taste test (sip, spit, rinse) of sweetener solutions containing phloroglucinol against reference sweetener solutions; type: in vivo
Method: as §1
Reference solutions: 5%, 7%, and 9% aqueous sucrose (sugar) solutions were prepared.
Reference solutions: 5%, 7%, and 9% aqueous sucrose solutions were prepared as in Example 1.
Reference solutions: 5%, 7%, 8% and 9% sucrose solutions in aqueous pH 3.0 citrate buffer solutions (citric acid 2.26 g plus trisodium citrate 0.32 g in 2 L water) were prepared.
Reference solutions: 2.5%, 3.5%, and 4% aqueous fructose (Sigma) solutions were prepared.
Reference solutions: 5%, 7%, 8% and 9% aqueous glucose (Sigma) solutions were prepared.
Reference solutions: 5%, 6%, 7%, 8% and 9% aqueous sucrose solutions were prepared. […] The variants were then tasted and assessed for their similarity to the reference solutions.
Reference solutions: 8%, 9%, 10%, and 11% aqueous sucrose solutions were prepared.
Reference solutions: 250 ppm and 320 ppm aqueous rebaudioside A solutions were prepared.

human sense of taste [7] = experiment: Taste of sugar solutions with phloroglucinol and salt against sugar controls; type: in vivo; settings: for phloroglucinol concentration required to achieve the sweetness of an 11% sugar solution: 8% sugar
Method: as §1
Half remained as a low control. Salt (300 ppm) was added to the other half (the “variant”). An 11% sugar solution was prepared as a high control.

human sense of taste [8] = experiment: as above; type: in vivo; settings: for Taste: body compared with 8% sugar control: 5% sugar in water
human sense of taste [9] = experiment: Sweet taste intensity ranking by trained sensory discrimination panelists; type: in vivo
Source text: (§2) Panelists were asked to rank the samples in order of sweet taste intensity from low sweet to high sweet. Each panelist tasted each sample twice during the study such that each sample was judged a total of 30 times.
as §2
Panelists were asked to rank the samples in order of sweet taste intensity from low sweet to high sweet. Each panelist was presented a replicate set to render a total of 32 judgment data points.

[10] = Example 13: 800 ppm phloroglucinol in SIERRA MIST
[11] = Example 8: 250 ppm phloroglucinol in 250 ppm aqueous rebaudioside A
[12] = Example 10, second taster: 250 ppm rebaudioside A with 800 ppm phloroglucinol
[13] = Example 17: 800 ppm phloroglucinol, 400 ppm salt, 8% sugar in water
[14] = Example 25: 400 ppm phloroglucinol in 5% sucrose
[15] = Example 26: 400 ppm phloroglucinol and 200 ppm sodium chloride in 5% sucrose
[16] = Example 27: 800 ppm phloroglucinol in 8.475% sucrose

SMILES: Oc1cc(O)cc(O)c1 [phloroglucinol]
- sweetness compared with low control (5 g sugar) and high control (8 g sugar) (human sense of taste [1]; Example 14: 5 g sugar and 137 mg phloroglucinol per bag of IQO (29 g), warm and room temperature): sweeter than the low control but not quite as sweet as the high control
- sweetness compared with high control (8 g sugar) (human sense of taste [1]; Example 21: 5 g sugar, 100 mg phloroglucinol, 1 g D-psicose per bag of IQO (29 g)): sweetness similar to the high control
- sweetness of variant cola beverage compared with control cola (11.3 Brix) (human sense of taste [2]; Example 12: 1/3 less HFCS (8 Brix without phloroglucinol), 800 ppm phloroglucinol): equal
- mouthfeel and flavor of variant cola beverage (human sense of taste [2]; Example 12: 1/3 less HFCS, 800 ppm phloroglucinol): good mouthfeel; also recorded: more sour but with less caramel sweet flavor
- sweetness after storage (human sense of taste [2]; Example 12 cola, stored at 90° F. for 18 days): sweetness remained about the same
- body and sourness (human sense of taste [2]; [10]): good body; also recorded: Sourness was about the same
- sweetness compared with untreated control (human sense of taste [2]; [10]): much sweeter than the control
- sweetness of variant cola beverage compared with control cola (11.3 Brix) (human sense of taste [2]; Example 19: 35% less HFCS (7.5 Brix), 400 ppm phloroglucinol and 1% D-psicose): equal
- mouthfeel of variant cola beverage (human sense of taste [2]; Example 19: 400 ppm phloroglucinol and 1% D-psicose): very good mouthfeel
- stability in solution [3]: stable and does not precipitate out of solution at the concentrations described herein, or break down at higher temperatures or when exposed to sunlight
- Taste (human sense of taste [4]; 300 ppm in water): No taste
- sweet taste of phloroglucinol by itself (human sense of taste [4]; 300 ppm to 800 ppm in water): No sweet taste was observed; also recorded: does not have any taste
- Taste (human sense of taste [4]; 400 ppm in water): No taste
- Taste (human sense of taste [4]; 400 ppm phloroglucinol, 100 ppm salt in water): No taste
- Taste (human sense of taste [4]; 500 ppm in water): No taste
- Taste (human sense of taste [4]; 500 ppm phloroglucinol, 100 ppm salt in water): No taste
- Taste (human sense of taste [4]; 600 ppm in water): No taste
- Taste (human sense of taste [4]; 600 ppm phloroglucinol, 100 ppm salt in water): No taste
- Taste, estimated sugar equivalent (human sense of taste [4]; 600 ppm phloroglucinol, 400 ppm salt in water): ~1% sugar
- Taste (human sense of taste [4]; 800 ppm in water): No taste
- taste of phloroglucinol in the presence of salt (human sense of taste [4]; Example 15: with sodium chloride): slightly sweet
- combination effect with rebaudioside C (human sense of taste [5]): synergistic
- sweetness, as equivalent aqueous sucrose reference solution (human sense of taste [6]; Example 1: 400 ppm phloroglucinol in 5% aqueous sucrose, references 5%, 7%, 9% sucrose): > 5% and ~7%
- temporal profile and quality of sweet taste (human sense of taste [6]; Example 2: 800 ppm phloroglucinol in 5% aqueous sucrose): sweetness of the variant took a split of a second to show but the backend seemed even sweeter; also recorded: the sweet taste was clean without lingering
- sweetness, as equivalent sucrose reference solution (human sense of taste [6]; Example 3: 800 ppm phloroglucinol in 5% aqueous sucrose without buffer, references 5-9% sucrose in pH 3.0 citrate buffer): ~8%
- temporal profile and quality of sweet taste (human sense of taste [6]; Example 3: 800 ppm phloroglucinol in 5% aqueous sucrose, references in pH 3.0 citrate buffer): sweetness of the variant took a split of a second to show but the backend seemed even sweeter; also recorded: the sweet taste was clean without lingering
- sweetness, as equivalent aqueous fructose reference solution (human sense of taste [6]; Example 4: 800 ppm phloroglucinol in 2.5% aqueous fructose): > 3.5% and ~4%
- temporal profile of sweet taste (human sense of taste [6]; Example 4: 800 ppm phloroglucinol in 2.5% aqueous fructose vs 4% fructose): the variant solution was sweeter in backend
- sweetness, as equivalent aqueous glucose reference solution (human sense of taste [6]; Example 5: 800 ppm phloroglucinol in 5% aqueous glucose): ~8% and < 9%
- dose response of apparent sweetness (FIG. 1) (human sense of taste [6]; Example 6: 40, 100, 200, 400, 600, 800 ppm phloroglucinol in 5% aqueous sucrose): approximately linear correlation between phloroglucinol concentration and apparent sweetness
- sweetness, as equivalent aqueous rebaudioside A reference solution (human sense of taste [6]; [11]): ~320 ppm
- taste quality (backend, bitter aftertaste of rebaudioside A) (human sense of taste [6]; [11]): a sweeter backend; also recorded: bitter aftertaste of rebaudioside A was not changed
- bitterness of the variant solution (human sense of taste [6]; [12]): did not change
- sweetness, as equivalent rebaudioside A reference solution (human sense of taste [6]; [12]): ~320 ppm
- sweetness, as equivalent aqueous sucrose reference solution (human sense of taste [6]; Examples 2, 10: 800 ppm phloroglucinol in 5% aqueous sucrose, references 5%, 7%, 9% sucrose): > 7% and < 9% and ~8%
- sweetness, as equivalent aqueous sucrose reference solution (human sense of taste [6]; Examples 7, 10, 11: 800 ppm phloroglucinol in 8% aqueous sucrose, first, second, third taster): > 10% and ~11% and > 11%
- phloroglucinol concentration required to achieve the sweetness of an 11% sugar solution (human sense of taste [7]; in the presence of 300 ppm salt): 500 ppm
- phloroglucinol concentration required to achieve the sweetness of an 11% sugar solution (human sense of taste [7]; no salt): 800 ppm
- sweetness, as equivalent sugar solution (human sense of taste [7]; Example 15 variant 2: 8% sugar, 500 ppm phloroglucinol, 300 ppm salt): 11 % sugar
- sweetness compared with low control (no salt) and 11% sugar high control (human sense of taste [7]; Example 15 variant: 8% sugar, 300 ppm phloroglucinol, 300 ppm salt): much sweeter than the low control, but not quite as sweet as the high control
- Taste: body compared with 8% sugar control (human sense of taste [8]; 600 ppm phloroglucinol, 400 ppm salt): more body
- Taste: body compared with 8% sugar control (human sense of taste [8]; 800 ppm phloroglucinol, 400 ppm salt): more body
- Taste: sweet taste as sugar equivalent (human sense of taste [8]; Example 17: 600 ppm phloroglucinol, 600 ppm salt, 8% sugar in water): ≥ 11 % sugar
- Taste: body (human sense of taste [8]; [13]): high body
- Taste: sweet taste as sugar equivalent (human sense of taste [8]; [13]): 12 % sugar
- Taste: sweet taste as sugar equivalent (human sense of taste [8]; Example 17: 800 ppm phloroglucinol, no salt, 8% sugar in water): 11 % sugar
- Taste: sweet taste as sugar equivalent (human sense of taste [8]; Example 17: 800 ppm phloroglucinol, no salt, 8% sugar in water, listed as Phloroglucinol): ~11% sugar
- sweet taste increased to, as sucrose equivalent (human sense of taste [9]; [14]): approximately 6.4%
- sweetness enhancement (human sense of taste [9]; [14]): approximately 28%
- sweet taste increased to, as sucrose equivalent (human sense of taste [9]; [15]): approximately 6.6%
- sweetness enhancement (human sense of taste [9]; [15]): approximately 32%
- statistical comparison with 11.3% sucrose solution (human sense of taste [9]; [16]): statistically indistinguishable from the 11.3% solution
- sweet taste increased to, as sucrose equivalent (human sense of taste [9]; [16]): approximately 11.76%
- sweetness enhancement (human sense of taste [9]; [16]): about 39%
